Source: US20210260078A1, “LOW DOSAGE INTRANASAL AMINOSTEROL DOSAGE FORMS AND METHODS OF USING THE SAME” (Enterin, Inc., priority 2018, published 2021)
“Also recorded” adds a separate entry of the source. Like-named read-outs stand apart in the source and are kept apart here. One block for each compound: values may come before it.

Tests used:
[1] = PK profile, IV bolus compared with IN administration (FIG. 9); assay type: in vivo; settings: rat, plasma
Excerpt: Thus, the amount of aminosterol in the bloodstream is too low to account for the observed pharmacological effect. This means that when administered IN, an aminosterol is having a pharmacological effect via a mechanism other than via plasma concentration of the drug.

[2] = Food intake and body weight after IP or ICV administration (FIG. 2B, 2C); assay type: in vivo; settings: 10 and 40 μg ICV, 5 mg/kg IP, 10 day period
Excerpt: The purpose of this example was to evaluate the in vivo distribution of the aminosterol Aminosterol 1436 following intraperitoneal administration (IP) and ICV administration, and to determine the impact the drug has on food intake and body weight when administered IP and ICV.
This experiment is relevant as the areas of the brain where the aminosterol Aminosterol 1436 localized upon administration are known to control feeding behavior and appetite.

[3] = Plasma pharmacokinetics after intranasal (IN) administration; assay type: in vivo, Sprague Dawley® (SD) rats
Excerpt: (§1) The purpose of this example was to evaluate the in vivo distribution and function of aminosterols, such as Aminosterol 1436 and squalamine, following intranasal administration. This experiment relates to the amount of drug needed to obtain a therapeutic result, based on an IN route of administration. The results described below detail that aminosterols such as Aminosterol 1436 act at the level of the hypothalamus following in vivo administration, regardless of the route of administration.
(§2) Pharmacokinetic information for these tests can be found in the tables below.

[4] = CSF concentration after intranasal (IN) administration; assay type: in vivo, Sprague Dawley® (SD) rats
Excerpt: as §1, §2

[5] = Weight change after IP or IN administration (FIG. 8); assay type: in vivo, mice
Protocol: The purpose of this example was to evaluate and compare the impact on weight following administration of an aminosterol such as Aminosterol 1436 to mice via IP or IN.
Mice were administered: (i) intraperitoneally 1 mg/kg or 10 mg/kg of Aminosterol 1436, (ii) intranasally 0.4 mg/kg of Aminosterol 1436, or (iii) a saline control administered IN. Weight of the mice was then measured for 10 days post-administration.

[6] = In vivo brain distribution of radiolabeled Aminosterol 1436 after ICV and IV administration; set-up: species or system rat; settings: 3H-labeled
Excerpt: The purpose of this example was to evaluate the in vivo distribution of Aminosterol 1436 following intracerebroventricular (ICV) and intravenous (IV) administration to rats. ICV injection is an invasive injection technique of substances directly into the cerebrospinal fluid in cerebral ventricles to bypass the blood brain barrier. The results described below detail how aminosterols such as Aminosterol 1436 localize in the brain following in vivo administration, regardless of the route of administration.
Radiolabeled Aminosterol 1436 was injected into rats by two different forms of administration: ICV and IV administration.

[7] = Sprague-Dawley, rat, inhaled or intranasal, plasma, 0.5 mg/kg IN dose, mean
[8] = plasma, 0.5 mg/kg IN dose, mean (Table 4)

bioavailability ([1]; other: intranasal, IN 0.5 mg/kg compared with IV bolus 2 mg/kg): ~20% | AUC ([1]; IV bolus 2 mg/kg, read-out: PK profile value after IV bolus injection (AUC)): 190000 ng·h/mL | Blood levels after intranasal administration relative to peripherally injected ([3]; IN versus peripherally injected): 10 times | AUC(0-inf) [3, 7]: 17900 ng·h/mL | AUC(0-t) [3, 7]: 9370 ng·h/mL | Cmax [3, 7]: 1680 ng/mL | half-life [3, 7]: 7.59 h | MRT inf ([3]; Sprague-Dawley, rat, inhaled or intranasal, plasma, 0.5 mg/kg IN dose, mean, read-out: MRTInf_obs): 11.1 h | Tmax ([3]; Sprague-Dawley, rat, inhaled or intranasal, plasma, 0.5 mg/kg IN dose, mean, read-out: Tmax): 4 h | Site of localization in brain ([6]; IV administration): localized in the hypothalamus
Compound: CC(C)[C@@H](CC[C@@H](C)[C@H]1CC[C@H]2[C@@H]3[C@H](O)C[C@H]4C[C@@H](NCCCNCCCCNCCCN)CC[C@]4(C)[C@H]3CC[C@]12C)OS(=O)(=O)O [Aminosterol 1436]
Effect on food intake [2]: significant impact on food intake | Drug found in CSF ([4]; Sprague-Dawley, rat, in vivo, 0.5 mg/kg): No squalamine lactate or Aminosterol 1436 was found in CSF | Decrease in weight, comparison in words ([5]; 0.4 mg/kg IN, 10 days post-administration): comparable to 10 mg/kg of intraperitoneally administered Aminosterol 1436 | Decrease in weight ([5]; 0.4 mg/kg intranasal (IN)): about 5% | Effect on weight (anti-feeding effect) ([5]; 1 mg/kg IP, compared with IN saline control): compared similarly to the intranasally administered saline control; also recorded: no anti-feeding effect | Decrease in weight ([5]; 10 mg/kg IP): about 19% | Site of localization in brain ([6]; ICV administration): localized to the same regions of the brain

AUCInf [3, 8]: 7863 ng·h/mL | AUClast [3, 8]: 5296 ng·h/mL | MRTInf_obs [3, 8]: 7.12 H | T1/2 [3, 8]: 4.55 H | Tmax [3, 8]: 1.00 H
Compound: CC(C)[C@@H](CC[C@@H](C)[C@H]1CC[C@H]2[C@@H]3[C@H](O)C[C@H]4C[C@@H](NCCCNCCCCN)CC[C@]4(C)[C@H]3CC[C@]12C)OS(=O)(=O)O.C[C@H](O)C(=O)O.O [Squalamine Lactate]
Drug found in CSF ([4]; CSF, 0.5 mg/kg IN): No squalamine lactate or Aminosterol 1436 was found in CSF
